Data as given in PMC11790914, “Chemogenomics for steroid hormone receptors (NR3)” (Communications Chemistry, 2025).
Several values for one entry are separate records, joined by “and”; a condition that tells them apart may be missing. Equal values may be shown once. Read-outs that look alike come from different tables or passages of the source.

Tests used:
Gal4-VP16 = assay type: cell-based; conditions: vs. DMSO ctrl, single replicates n=1-3
Method: Five hours after transfection, the cells were incubated with the NR3 CG compound candidates at the recommended concentrations by changing the medium to Opti-MEM supplemented with penicillin (100 µ/mL) and streptomycin (100 µg/mL) additionally containing 0.1% DMSO and the respective test compound or 0.1% DMSO alone as untreated control. Firefly (reporter) and renilla (control) luminescence were measured after 14–16 h incubation using the Dual-Glo® Luciferase Assay System (Promega, Fitchburg, Wisconsin, USA; #E2980) according to manufacturer’s protocol on a Tecan Spark® 10M multimode microplate reader (Tecan Group AG, Männedorf, Switzerland). To obtain relative light units (RLU) firefly luminescence was divided by renilla luminescence and multiplied by 1000. Fold activation was obtained by dividing the mean RLU of a test sample by the mean RLU of the DMSO (0.1%) control. Experiments were performed in singlets in at least three biologically independent repeats.
are labeled according to their mode of action (yellow - agonist, grey - antagonist, grey with label D - degrader) and grouped by their
NR3 subfamily main targets.
reporter activity at the indicated concentrations expressed as mean fold reporter gene activity (n=3).

ABL1 = biological target: T1, ABL1 (Homo sapiens, UniProt P00519); assay: Liability panel screening by DSF: ABL1; assay type: binding; conditions: DSF, 20 µM, n=2; read-out: Mean ΔTM ABL1
T1 construct: made in house
Summary of the method: (§1)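 ∆Tm in K was taken from Boltzmann-fitted unfolding inflection points, run in duplicate with a temperature ramp of 3 °C per minute up to 85 °C. Each recombinant protein (2 µM) was in HEPES 10 mM pH 7.5 and NaCl 500 mM, with SYPRO Orange dye at 1:1000.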

AURKA = biological target: T2, AURKA (Homo sapiens, UniProt O14965); assay: Liability panel screening by DSF: AURKA; assay type: binding; conditions: DSF, 20 µM, n=2; read-out: Mean ΔTM AURKA
T2 construct: made in house
T2 sequence (O14965 1-403): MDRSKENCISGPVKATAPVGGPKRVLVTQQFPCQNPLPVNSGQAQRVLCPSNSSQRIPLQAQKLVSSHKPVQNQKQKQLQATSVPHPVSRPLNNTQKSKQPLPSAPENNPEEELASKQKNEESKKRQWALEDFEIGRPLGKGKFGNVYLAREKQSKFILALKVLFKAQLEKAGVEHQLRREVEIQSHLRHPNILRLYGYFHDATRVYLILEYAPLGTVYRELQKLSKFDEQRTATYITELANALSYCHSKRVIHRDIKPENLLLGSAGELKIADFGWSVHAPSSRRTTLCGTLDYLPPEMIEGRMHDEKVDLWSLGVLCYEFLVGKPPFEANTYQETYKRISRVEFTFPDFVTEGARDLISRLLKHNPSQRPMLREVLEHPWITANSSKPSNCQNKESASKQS
Summary of the method: as §1

CDK2 = biological target: T3, CDK2 (Homo sapiens, UniProt P24941); assay: Liability panel screening by DSF: CDK2; assay type: binding; conditions: DSF, 20 µM, n=2; read-out: Mean ΔTM CDK2
T3 construct: made in house
Summary of the method: as §1

GSK3B = biological target: T4, GSK3B (Homo sapiens, UniProt P49841); assay: Liability panel screening by DSF: GSK3B; assay type: binding; conditions: DSF, 20 µM, n=2; read-out: Mean ΔTM GSK3B
T4 construct: made in house

BRPF1 = biological target: T5, BRPF1 (Homo sapiens, UniProt P55201); assay: Liability panel screening by DSF: BRPF1; assay type: binding; conditions: DSF, 20 µM, n=2; read-out: Mean ΔTM BRPF1
T5 construct: This panel comprised ten highly ligandable kinases and bromodomains; made in house
T5 sequence (P55201 628-732 limits assumed): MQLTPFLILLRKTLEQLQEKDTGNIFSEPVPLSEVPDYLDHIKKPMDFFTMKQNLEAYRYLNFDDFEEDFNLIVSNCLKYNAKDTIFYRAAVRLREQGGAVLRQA
Summary of the method: as §1

CSNK1D = biological target: T6, CSNK1D (Homo sapiens, UniProt P48730); assay: Liability panel screening by DSF: CSNK1D; assay type: binding; conditions: DSF, 20 µM, n=2; read-out: Mean ΔTM CSNK1D
T6 construct: made in house
Summary of the method: as §1

MAPK1 = biological target: T7, MAPK1 (Homo sapiens, UniProt P28482); assay: Liability panel screening by DSF: MAPK1; assay type: binding; conditions: DSF, 20 µM, n=2; read-out: Mean ΔTM MAPK1
T7 construct: made in house
Summary of the method: as §1

TRIM24 = biological target: T8, TRIM24 (Homo sapiens, UniProt O15164); assay: Liability panel screening by DSF: TRIM24; assay type: binding; conditions: DSF, 20 µM, n=2; read-out: Mean ΔTM TRIM24
T8 construct: This panel comprised ten highly ligandable kinases and bromodomains; made in house
T8 sequence (O15164 899-1004 limits assumed): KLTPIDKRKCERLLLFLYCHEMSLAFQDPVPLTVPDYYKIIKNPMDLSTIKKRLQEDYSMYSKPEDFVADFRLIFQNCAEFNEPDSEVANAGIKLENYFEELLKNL
Summary of the method: as §1

[1] = tested on: NF-κB activity in HEK293 NF-κB reporter cells; assay: NF-kB activity assay (GFP reporter, ionomycin/PMA); assay type: cell-based; conditions: for Mean NFκB response: n=3
Summary of the method: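 HEK293 NF-κB GFP reporter cells given compound in 0.1% DMSO for 4 h, then stimulated with ionomycin 100 ng/mL plus PMA 10 ng/mL. Imaged every 90 min over 24 h; GFP-positive cell count normalized to confluence, three independent biological replicates.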

[2] = tested on: ATF6 activity in Hela ATF6 reporter cells; assay: Endoplasmic reticulum stress assay (ATF6 Renilla luciferase reporter, tunicamycin); assay type: cell-based; conditions: for ATF6 activity (tunicamycin-induced endoplasmic reticulum stress): Hela ATF6 reporter cells, tunicamycin 100 ng/mL, 18 h, compounds at recommended concentrations, n = 5
Summary of the method: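 HeLa ATF6 Renilla reporter cells were pretreated 4 h with compounds in 0.1% DMSO, then stimulated with tunicamycin (100 ng/mL) for 18 h. Renilla luminescence (DualGlo) was normalized to 0.1% DMSO control; five independent experiments.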

HEK293T cells [3] = assay: Cytotoxicity: growth-rate (change in confluence over 24 h); conditions: normalized to 0.1% DMSO control, single replicates (n=1...)
Method: Cells were incubated with the test compounds at the indicated concentrations solubilized with 0.1% DMSO for 24 h. Growth-rate was determined based on the change in confluence over 24 h normalized to the change in confluence of cells treated with the 0.1% DMSO control (n = 10). Metabolic activity was determined with a water-soluble tetrazolium-8 (WST-8) assay (n = 8) after 24 h treatment. Apoptotic cells were detected with a fluorogenic DNA dye coupled to the caspase-3/7 recognition sequence (DEVD) after 24 h treatment and the apoptotic cell count was normalized to 0.1% DMSO treated cells (n = 6).
HEK293T cells (German Collection of Microorganisms and Cell Culture GmbH, DSMZ; #ACC305) were cultured in DMEM high glucose, supplemented with 10% fetal calf serum (FCS), sodium pyruvate (1 mM), penicillin (100 µ/mL) and streptomycin (100 µg/mL) at 37 °C and 5% (v/v) CO2, and seeded in pre-coated (10 µg/mL collagen G solution (Merck KgaA; #L7213) for 30 min at 37 °C) 96-well plates (2 × 10^5 cells per well). After 24 h, the cells were treated with the respective NR3 CG compound candidate at the recommended concentration, bexarotene (100 µM) or doxorubicin (30 µM) as positive controls in DMEM high glucose supplemented with 0.1% FCS, penicillin (100 µ/mL), streptomycin (100 µg/mL) and 0.1% DMSO, or 0.1% DMSO alone as an untreated control. Each sample was prepared in at least four biologically independent replicates. […] Thereafter, the medium was aspirated and the cells were incubated for 3 h with 90 µL DMEM high glucose supplemented with 0.2% FCS, penicillin (100 µ/mL) and streptomycin (100 µg/mL) and additionally containing 10 µL Cell Counting Kit 8 solution (CCK-8; MedChemExpress, Monmouth Junction, New York, USA; #HY-K0301), and absorbance was measured at 1 h, 2 h and 3 h of incubation at 450 nm on a Tecan Spark Cyto to assess metabolic activity of the cells. Before drug administration, after the first medium exchange, 24 h after drug administration, and after fluorescence imaging cell confluence was assessed using the Tecan Spark Cyto, to account for changes in cell confluence due to drug administration and cell handling. Compound effects on cell confluence, apoptosis, metabolic activity and necrosis were normalized to the vehicle control of each biological replicate individually.

HEK293T cells [4] = assay: Cytotoxicity: apoptosis induction (caspase-3/7 DEVD fluorogenic DNA dye); conditions: HEK293T, 24 h, apoptotic cell count normalized to 0.1% DMSO, single replicates

T1 sequence (P00519 whole entry, species assumed): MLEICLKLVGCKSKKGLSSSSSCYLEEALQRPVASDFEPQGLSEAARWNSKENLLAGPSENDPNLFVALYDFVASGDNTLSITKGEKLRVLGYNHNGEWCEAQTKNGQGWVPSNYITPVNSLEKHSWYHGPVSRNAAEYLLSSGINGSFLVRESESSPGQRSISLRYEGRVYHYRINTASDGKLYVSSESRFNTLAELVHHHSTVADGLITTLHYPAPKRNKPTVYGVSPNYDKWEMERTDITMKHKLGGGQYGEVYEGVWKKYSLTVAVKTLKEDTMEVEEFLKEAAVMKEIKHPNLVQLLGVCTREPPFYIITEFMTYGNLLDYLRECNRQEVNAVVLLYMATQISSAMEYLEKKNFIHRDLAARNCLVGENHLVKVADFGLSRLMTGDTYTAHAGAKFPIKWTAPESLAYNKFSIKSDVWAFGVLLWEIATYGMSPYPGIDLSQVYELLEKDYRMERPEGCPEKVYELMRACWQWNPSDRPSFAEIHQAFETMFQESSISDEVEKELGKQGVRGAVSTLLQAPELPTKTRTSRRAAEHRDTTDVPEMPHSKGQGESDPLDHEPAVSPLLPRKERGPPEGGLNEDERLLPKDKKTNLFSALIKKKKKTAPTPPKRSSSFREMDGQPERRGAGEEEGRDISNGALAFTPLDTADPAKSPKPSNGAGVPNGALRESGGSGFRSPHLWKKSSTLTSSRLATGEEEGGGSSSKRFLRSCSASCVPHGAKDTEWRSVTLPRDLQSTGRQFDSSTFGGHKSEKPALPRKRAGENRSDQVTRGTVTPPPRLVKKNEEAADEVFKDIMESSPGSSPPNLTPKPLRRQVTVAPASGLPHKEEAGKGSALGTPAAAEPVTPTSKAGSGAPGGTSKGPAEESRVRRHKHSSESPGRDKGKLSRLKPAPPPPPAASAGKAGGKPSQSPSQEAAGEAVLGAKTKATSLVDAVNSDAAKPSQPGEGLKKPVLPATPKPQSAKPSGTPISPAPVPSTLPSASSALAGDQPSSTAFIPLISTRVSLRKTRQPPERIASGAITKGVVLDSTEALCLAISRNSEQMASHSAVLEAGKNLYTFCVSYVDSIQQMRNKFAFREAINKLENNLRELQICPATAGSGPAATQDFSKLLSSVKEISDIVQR
T6 sequence (P48730 whole entry, species assumed): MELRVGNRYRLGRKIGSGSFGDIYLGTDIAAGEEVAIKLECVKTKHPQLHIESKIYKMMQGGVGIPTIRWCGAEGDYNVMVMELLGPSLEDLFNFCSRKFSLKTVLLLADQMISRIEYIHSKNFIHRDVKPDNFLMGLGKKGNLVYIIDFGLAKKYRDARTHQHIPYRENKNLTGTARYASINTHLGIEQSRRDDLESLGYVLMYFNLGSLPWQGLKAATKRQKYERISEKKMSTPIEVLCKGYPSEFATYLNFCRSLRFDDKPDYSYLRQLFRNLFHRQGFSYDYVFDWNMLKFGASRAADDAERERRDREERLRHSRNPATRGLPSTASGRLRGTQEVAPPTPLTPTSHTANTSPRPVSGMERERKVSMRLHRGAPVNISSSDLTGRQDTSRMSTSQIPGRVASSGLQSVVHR
T4 sequence (P49841 whole entry, species assumed): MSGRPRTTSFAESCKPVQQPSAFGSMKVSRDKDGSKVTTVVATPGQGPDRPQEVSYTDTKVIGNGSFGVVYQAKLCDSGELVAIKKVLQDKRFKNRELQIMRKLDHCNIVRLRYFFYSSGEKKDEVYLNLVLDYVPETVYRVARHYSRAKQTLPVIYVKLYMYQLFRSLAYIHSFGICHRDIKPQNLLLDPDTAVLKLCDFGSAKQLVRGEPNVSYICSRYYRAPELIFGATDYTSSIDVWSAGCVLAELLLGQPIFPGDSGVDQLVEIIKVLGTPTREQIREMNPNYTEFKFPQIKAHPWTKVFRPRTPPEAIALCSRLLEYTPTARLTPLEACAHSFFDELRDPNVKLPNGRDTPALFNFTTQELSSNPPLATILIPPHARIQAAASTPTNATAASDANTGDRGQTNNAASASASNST
T7 sequence (P28482 whole entry, species assumed): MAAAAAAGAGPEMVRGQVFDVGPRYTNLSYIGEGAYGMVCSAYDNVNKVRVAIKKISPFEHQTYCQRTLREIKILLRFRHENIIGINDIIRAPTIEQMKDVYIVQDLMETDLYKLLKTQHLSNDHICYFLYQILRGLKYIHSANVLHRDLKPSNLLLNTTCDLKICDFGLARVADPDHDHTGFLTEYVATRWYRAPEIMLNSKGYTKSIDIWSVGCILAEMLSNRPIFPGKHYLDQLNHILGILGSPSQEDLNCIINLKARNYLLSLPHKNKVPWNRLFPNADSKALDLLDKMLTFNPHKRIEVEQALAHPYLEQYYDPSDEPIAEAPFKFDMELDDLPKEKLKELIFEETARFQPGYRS

Structure (SMILES): CCN(CC)c1ccc(/C=N/NC(=O)c2ccc(O)cc2)cc1 [DY131]
- VP16 control [fold reporter gene activity] (Gal4-VP16; 3 µM): 1.12 fold reporter gene activity and 1.24 fold reporter gene activity and 1.20 fold reporter gene activity
- ΔTm at 20 µM (ABL1): 0.66 °C
- ΔTm at 20 µM (AURKA): -2.05 °C
- ΔTm at 20 µM (CDK2): 0.35 °C
- ΔTm at 20 µM (GSK3B): -0.28 °C
- ΔTm at 20 µM (BRPF1): 1.09 °C
- ΔTm at 20 µM (CSNK1D): -0.0354 °C
- ΔTm at 20 µM (MAPK1): 0.23 °C
- ΔTm at 20 µM (TRIM24): -3.28 °C
- Mean NFκB response ([1]; 3 µM, 1,5 h): 3734.45 GFP+-cells/confluence ∙ 1000
- Mean NFκB response ([1]; 3 µM, 4,5 h): 4226.03 GFP+-cells/confluence ∙ 1000
- Mean NFκB response ([1]; 3 µM, 7,5 h): 9363.33 GFP+-cells/confluence ∙ 1000
- Mean NFκB response ([1]; 3 µM, 10,5 h): 20103.33 GFP+-cells/confluence ∙ 1000
- Mean NFκB response ([1]; 3 µM, 13,5 h): 29726.67 GFP+-cells/confluence ∙ 1000
- Mean NFκB response ([1]; 3 µM, 16,6 h): 36476.67 GFP+-cells/confluence ∙ 1000
- Mean NFκB response ([1]; 3 µM, 19,5 h): 41143.33 GFP+-cells/confluence ∙ 1000
- Mean NFκB response ([1]; 3 µM, 22,5 h): 44036.67 GFP+-cells/confluence ∙ 1000
- Mean NFκB response ([1]; 3 µM, 3 h): 4084.29 GFP+-cells/confluence ∙ 1000
- Mean NFκB response ([1]; 3 µM, 6 h): 5799.09 GFP+-cells/confluence ∙ 1000
- Mean NFκB response ([1]; 3 µM, 9 h): 14733.33 GFP+-cells/confluence ∙ 1000
- Mean NFκB response ([1]; 3 µM, 12 h): 25326.67 GFP+-cells/confluence ∙ 1000
- Mean NFκB response ([1]; 3 µM, 15 h): 33133.33 GFP+-cells/confluence ∙ 1000
- Mean NFκB response ([1]; 3 µM, 18 h): 38383.33 GFP+-cells/confluence ∙ 1000
- Mean NFκB response ([1]; 3 µM, 21 h): 42820.00 GFP+-cells/confluence ∙ 1000
- Mean NFκB response ([1]; 3 µM, 24 h): 45096.67 GFP+-cells/confluence ∙ 1000
- ATF6 activity (tunicamycin-induced endoplasmic reticulum stress) [2]: strongly ameliorated the tunicamycin-induced endoplasmic reticulum stress
- activity at 3 µM ([2]; Homo sapiens, HeLa, 3 µM, single replicates n=1 to n=5, read-out: ER stress [rel. ATF6 activity]): 25%
- Growth rate [GR] (HEK293T cells [3]; 3 µM): 0.59 and 11.37 and 0.74 and 0.90 and 0.70 and 0.29 and 0.57 and 4.91 and 1.76 and 192.70
- Apoptosis induction [AI] (HEK293T cells [4]; 3 µM): -15.91 and -17.65 and -9.63 and -8.53 and 1.25 and 1.40

Structure (SMILES): Cc1ccc2c(NC[C@](O)(CC(C)(C)c3cc(F)cc4c3OCC4)C(F)(F)F)cccc2n1 [Mapracorat]
- VP16 control [fold reporter gene activity] (Gal4-VP16; 1 µM): 0.84 fold reporter gene activity and 0.88 fold reporter gene activity and 1.01 fold reporter gene activity
- ΔTm at 20 µM (ABL1): 0.24 °C
- ΔTm at 20 µM (AURKA): -0.69 °C
- ΔTm at 20 µM (CDK2): -0.17 °C
- ΔTm at 20 µM (GSK3B): -0.25 °C
- ΔTm at 20 µM (BRPF1): 0.63 °C
- ΔTm at 20 µM (CSNK1D): -0.78 °C
- ΔTm at 20 µM (MAPK1): -0.47 °C
- ΔTm at 20 µM (TRIM24): -0.84 °C
- Mean NFκB response ([1]; 1 µM, 1,5 h): 2171.23 GFP+-cells/confluence ∙ 1000
- Mean NFκB response ([1]; 1 µM, 4,5 h): 3001.35 GFP+-cells/confluence ∙ 1000
- Mean NFκB response ([1]; 1 µM, 7,5 h): 6252.60 GFP+-cells/confluence ∙ 1000
- Mean NFκB response ([1]; 1 µM, 10,5 h): 12057.95 GFP+-cells/confluence ∙ 1000
- Mean NFκB response ([1]; 1 µM, 13,5 h): 15815.67 GFP+-cells/confluence ∙ 1000
- Mean NFκB response ([1]; 1 µM, 16,6 h): 19330.00 GFP+-cells/confluence ∙ 1000
- Mean NFκB response ([1]; 1 µM, 19,5 h): 21866.67 GFP+-cells/confluence ∙ 1000
- Mean NFκB response ([1]; 1 µM, 22,5 h): 23846.67 GFP+-cells/confluence ∙ 1000
- Mean NFκB response ([1]; 1 µM, 3 h): 2434.19 GFP+-cells/confluence ∙ 1000
- Mean NFκB response ([1]; 1 µM, 6 h): 4081.73 GFP+-cells/confluence ∙ 1000
- Mean NFκB response ([1]; 1 µM, 9 h): 9170.03 GFP+-cells/confluence ∙ 1000
- Mean NFκB response ([1]; 1 µM, 12 h): 13883.00 GFP+-cells/confluence ∙ 1000
- Mean NFκB response ([1]; 1 µM, 15 h): 17560.00 GFP+-cells/confluence ∙ 1000
- Mean NFκB response ([1]; 1 µM, 18 h): 20616.67 GFP+-cells/confluence ∙ 1000
- Mean NFκB response ([1]; 1 µM, 21 h): 23216.67 GFP+-cells/confluence ∙ 1000
- Mean NFκB response ([1]; 1 µM, 24 h): 25073.33 GFP+-cells/confluence ∙ 1000
- NF-κB activity (inflammatory response to ionomycin/PMA) ([1]; HEK293 NF-κB reporter cells, compounds at recommended concentrations, imaged over 24 h, n = 3): consistently delayed and strongly diminished NF-κB activity
- ATF6 activity (tunicamycin-induced endoplasmic reticulum stress) [2]: Consistently weaker ATF6 activity
- activity at 1 µM ([2]; Homo sapiens, HeLa, 1 µM, single replicates n=1 to n=5, read-out: ER stress [rel. ATF6 activity]): 83%
- Growth rate [GR] (HEK293T cells [3]; 1 µM): 0.90 and 6.11 and 0.92 and 1.17 and 0.84 and 0.73 and 1.07 and 1.61 and 3.67 and 14.17
- Apoptosis induction [AI] (HEK293T cells [4]; 1 µM): -0.37 and -0.27 and 0.87 and 1.32 and 1.12 and 1.57
